Data on 6 compounds can be found in patent publication US4137313A, “2,5-Dihydro-1,2-thiazino(5,6-b)indole-3-carboxamide-1,1-dioxides and salts thereof” (Boehringer Ingelheim GmbH, priority 1977, dated 1979).

In series [1] the test system is platelet aggregation in platelet-enriched plasma of healthy humans. The series is described as follows: BORN-Test, collagen-induced platelet aggregation. It counts as cell-based. To be noted: Homo sapiens, vs control, read-out: % decrease in aggregation; for inhibition at 100 µM: 1 × 10^-4 Mol/liter; for inhibition at 10 µM: 1 × 10^-5 Mol/liter; for inhibition at 20 µM: 2 × 10^-5 Mol/liter; for inhibition at 2 µM: 2 × 10^-6 Mol/liter. As to the method: (a) BORN-Test, Collagen-Induced Aggregation
The platelet aggregation was measured according to the method of BORN and CROSS (J. Physiol. 170, pp. 397 [1964]) in platelet-enriched plasma of healthy humans. The decrease in the optical density of the platelet suspension after addition of collagen was measured and registered photometrically. From the angle of inclination of the density curve the rate of aggregation can be determined. […] The quantity of collagen was chosen so that it produced an irreversible control curve.
The indicated values refer to the optical density and signify the percentage change in the light transmission (=% decrease in aggregation) under the influence of the test compound in comparision to the control.
Commercial collagen manufactured by Hormon-Chemie, Munich, Germany, was used.

Series [2] relates to male and female mice. The series is described as follows: Determination of acute toxicity, oral administration. Type of series: in vivo. The following applies: 1 000 mgm/kg oral, 10 mice; for Dead animals within observation period 1 day: within 1 day; for Dead animals within observation period 7 days: within 7 days; for Dead animals within observation period 14 days: within 14 days. As to the method:
(b) Determination of Acute Toxicity
The acute toxicity was determined in male and female mice after oral administration of the test compound as a suspension in tylose.

As to `COc1ccc2c(c1)c1c(n2C)C(O)=C(C(=O)Nc2ccccn2)N(C)S1(=O)=O` [F, 2,5-dihydro-2,5-dimethyl-4-hydroxy-8-methoxy-N-(2-pyridyl)-1,2-thiazino[5,6-b]indole-3-carboxamide-1,1-dioxide], in series [1], the inhibition at 100 µM came to 85% and the inhibition at 10 µM amounted to 43%.

For the compound `Cc1csc(NC(=O)C2=C(O)c3c(c4ccccc4n3C)S(=O)(=O)N2C)n1` [B, 2,5-dihydro-2,5-dimethyl-4-hydroxy-N-(4-methyl-2-thiazolyl)-1,2-thiazino[5,6-b]indole-3-carboxamide-1,1-dioxide], in series [1], the inhibition at 20 µM was determined as 100% and the inhibition at 2 µM was 97%. Further, in series [1] (2 × 10^-7 Mol/liter), the inhibition at 0.2 µM amounted to 42%. Further, in series [2], the “Dead animals within observation period 1 day” value is given as 0, the “Dead animals within observation period 7 days” value was 0 and the “Dead animals within observation period 14 days” value was 0.

Take `CN1C(C(=O)Nc2nccs2)=C(O)c2c(c3cc(Cl)ccc3n2C)S1(=O)=O` [E, 8-chloro-2,5-dihydro-2,5-dimethyl-4-hydroxy-N-(2-thiazolyl)-1,2-thiazino[5,6-b]indole-3-carboxamide-1,1-dioxide]: in series [1], the inhibition at 100 µM came to 100% and the inhibition at 10 µM stood at 86%. The inhibition at 1 µM in series [1] (1 × 10^-6 Mol/liter) was 27%. In series [2], the “Dead animals within observation period 1 day” value is 0, the “Dead animals within observation period 7 days” value stood at 0 and the “Dead animals within observation period 14 days” value is listed as 0.

Regarding `Cc1cccc(NC(=O)C2=C(O)c3c(c4ccccc4n3C)S(=O)(=O)N2C)n1` [D, 2,5-dihydro-2,5-dimethyl-4-hydroxy-N-(6-methyl-2-pyridyl)-1,2-thiazino[5,6-b]indole-3-carboxamide-1,1-dioxide], the inhibition at 50 µM in series [1] (5 × 10^-5 Mol/liter) was 86%. Moreover, in series [1] (5 × 10^-6 Mol/liter), the inhibition at 5 µM was determined as 60%. Also, in series [2], the “Dead animals within observation period 1 day” value is 0, the “Dead animals within observation period 7 days” value amounted to 0 and the “Dead animals within observation period 14 days” value amounted to 0.

`Cc1nc(NC(=O)C2=C(O)c3c(c4ccccc4n3C)S(=O)(=O)N2C)sc1C` [C, 2,5-dihydro-2,5-dimethyl-N-(4,5-dimethyl-2-thiazolyl)-4-hydroxy-1,2-thiazino[5,6-b]indole-3-carboxamide-1,1-dioxide]: in series [1], the inhibition at 20 µM is 89% and the inhibition at 2 µM turned out to be 82%.

On to `CN1C(C(=O)Nc2nccs2)=C(O)c2c(c3ccccc3n2C)S1(=O)=O` [A, 2,5-dihydro-2,5-dimethyl-4-hydroxy-N-(2-thiazolyl)-1,2-thiazino[5,6-b]indole-3-carboxamide-1,1-dioxide], for which, in series [1], the inhibition at 20 µM was 96% and the inhibition at 2 µM amounted to 81%. Besides, in series [2], the “Dead animals within observation period 1 day” value stood at 0, the “Dead animals within observation period 7 days” value is listed as 0 and the “Dead animals within observation period 14 days” value is 0.
